What was measured:
Alternaria solani = assay: Alternaria test (tomato)/protective; format: in vivo; details: protective, application rate 1000 ppm, evaluation 7 days after inoculation
Description: (§1) To produce a suitable preparation of active compound, 1 part by weight of active compound is mixed with the stated amounts of solvent and emulsifier and the concentrate is diluted with water to the desired concentration.
To test for protective activity, young tomato plants are sprayed with the active compound preparation at the stated application rate. 1 day after the treatment, the plants are inoculated with a spore suspension of Alternaria solani and then remain at 100% relative atmospheric humidity and 20° C. for 24 h. The plants then remain at 96% relative atmospheric humidity and a temperature of 20° C.
Evaluation is carried out 7 days after the inoculation. 0% means an efficacy which corresponds to that of the control, whereas an efficacy of 100% means that no infection is observed.

[1] = log P determination by HPLC on reversed-phase column (C 18), EEC Directive 79/831 Annex V.A8; format: physicochemical; details: reversed-phase HPLC column (C 18); pH 2.3; 0.1% aqueous phosphoric acid and acetonitrile; 43° C.
Description: The log P values given in the Tables and Preparation Examples above are determined in accordance with EEC Directive 79/831 Annex V.A8 by HPLC (High Performance Liquid Chromatography) on a reversed-phase column (C 18). Temperature: 43° C. The determination is carried out in the acidic range at pH 2.3 using the mobile phases 0.1% aqueous phosphoric acid and acetonitrile; linear gradient from 10% acetonitrile to 90% acetonitrile. Calibration is carried out using unbranched alkan-2-ones (having 3 to 16 carbon atoms) with known log P values (determination of the log P values by the retention times using linear interpolation between two successive alkanones).

Uromyces appendiculatus = assay: Uromyces test (bean)/protective; format: in vivo; details: protective, application rate 100 ppm, evaluation 10 days after inoculation
Description: To produce a suitable preparation of active compound, 1 part by weight of active compound is mixed within the stated amounts of solvents and emulsifier and the concentrate is diluted with water to the desired concentration.
To test for protective activity, the young plants are sprayed with the active compound preparation at the stated application rate. After the spray coating has dried on, the plants are inoculated with an aqueous spore suspension of the bean rust pathogen Uromyces appendiculatus and then remain in an incubation cabin at about 20° C. and 100% relative atmospheric humidity for 1 day. The plants are then placed in a greenhouse at about 21° C. and a relative atmospheric humidity of about 90%.
Evaluation is carried out 10 days after the inoculation. 0% means an efficiency which corresponds to that of the control, whereas an efficacy of 100% means that no infection is observed.

Pyrenophora teres = Pyrenophora teres test (barley)/protective; format: in vivo; details: protective, application rate 500 ppm, evaluation 8 days after inoculation
Description: as §1
To test for protective activity, young plants are sprayed with the active compound preparation at the stated application rate. After the spray coating has dried on, the plants are sprayed with a conidia suspension of Pyrenophora teres. The plants remain in an incubation cabin at 20° C. and 100% relative atmospheric humidity for 48 hours.
The plants are then placed in a greenhouse at a temperature of about 20° C. and a relative atmospheric humidity of about 80%.
Evaluation is carried out 8 days after the inoculation. 0% means an efficacy which corresponds to that of the control, whereas an efficacy of 100% means that no infection is observed.

SMILES | Efficacy in % (Alternaria solani) [%] | chromatographic logP [1] | Efficacy in % (Uromyces appendiculatus) [%] | Efficacy in % (Pyrenophora teres) [%]
CC(C)CC(C)c1ccccc1N(C(=O)c1cn(C)nc1C(F)F)C1CC1 (stereo not drawn) [Compound 3, N-cyclopropyl-3-(difluoromethyl)-N-[2-(1,3-dimethylbutyl)phenyl]-1-methyl-1H-pyrazol-4-carboxamide] | 94 | 3.89 | 100 | 
Cn1cc(C(=O)N(c2ccccc2-c2ccc(Cl)cc2)C2CC2)c(C(F)F)n1 [Compound 7] | 89 | 3.38 |  | 95
Cc1nn(C)c(F)c1C(=O)N(c1ccccc1-c1ccc(Cl)cc1)C1CC1 [Compound 6] |  | 3.22 | 93 | 80
Cn1cc(C(=O)N(c2ccc(F)cc2-c2ccc(Cl)c(Cl)c2)C2CC2)c(C(F)F)n1 [Compound 11] | 94 | 3.85 |  | 
Cc1nn(C)c(F)c1C(=O)N(c1ccc(F)cc1-c1ccc(Cl)c(Cl)c1)C1CC1 [Compound 10] | 89 | 3.74 |  | 95
CC(C)CC(C)c1ccccc1NC1CC1 (stereo not drawn) [III-1, N-cyclopropyl-2-(1,3-dimethylbutyl)aniline] |  | 5.33 |  | 
Cc1nn(C)c(F)c1C(=O)N(c1ccccc1C(C)CC(C)C)C1CC1 (stereo not drawn) [Compound 2] | 100 | 3.74 | 100 | 
